In US20250197355A1, “TEAD Targeting Compounds and Methods Thereof” (Agency for Science, Technology and Research, priority 2022, published 2025):

Assays:
Type in all cases: cell-based
[1] = Colony forming assay for compound 2 and 38 (treatment and 5 days recovery); settings: treatment and recovery (5 days)
U20S cells [2] = assay: Cell proliferation assay (Cell Titre Glow) in U20S cells
Description: (§1) Method: Indicated cells were plated at 3000 cells/80 μl in each well. TEAD4 depletion was performed by reverse transfection with 20 nM of Dharmacon smart pool NTsiRNA and TEAD4 siRNA in 0.25 ul of lipofectamine mixed with 25% of OPTIMEM. After 18 hrs of transfection, cells were recovered for 24 hrs in fresh DMEM medium. Cells were treated with indicated compounds at different doses. After 48 hrs of dosing cells were recovered in fresh medium for 3 days. Cell Titre Glow (CTG) assay was used.
(§2) U20S cells stably expressing GFP fused TEAD4 and GFP alone were treated with different doses of CPD10 and analysed for cellular proliferation. […] Further we used cell lines expressing higher level of TEAD4 and performed depletion experiment followed by comparative sensitivity analysis.

U20S cells [3] = assay: Colony forming assay in U20S cells depleted of or overexpressing TEAD4; settings: for TEAD4 dependence of cellular sensitivity (siRNA depletion, colony forming): U20S cells, control siRNA vs TEAD4 siRNA
Description: (§3) In colony forming assay, indicated cells were plated at 5,000 cells density in 2 ml of DMEM medium. TEAD4 depletion was performed by reverse transfection with 20 nM of Dharmacon smart pool NTsiRNA and TEAD4 siRNA in 2.5 ul of lipofectamine mixed with 25% of OPTIMEM. After 18 hrs of transfection, cells were either DMSO treated or treated with indicated compounds at different doses. After 48 hrs of the treatment cells were recovered in a fresh medium for 4 days. At the end of the experiment cells were Glutaraldehyde fixed and stained in crystal violet solution for 2 hrs. After washing, plates were scanned for image processing.
In line with proliferation assay we performed colony forming assay in U20S cells either depleted or overexpressing TEAD4. Cells stably expressing GFP and GFP fused TEAD4 were also included in this assay.

YAP-TEAD binding = biological target: T1, YAP-TEAD binding (Homo sapiens, UniProt Q15561); assay: Endogenous TEAD4 immunoprecipitation in NCI-H226 mesothelioma cells; settings: 24 hrs, indicated concentrations
T1 construct: Endogenous TEAD4 IP; endogenous in cells; host or cells: NCI-H226 mesothelioma cells
Description: Evaluation of CPD10 and CPD13 in NCI-H226 mesothelioma cell line: Actively growing cells were either DMSO added or treated with indicated concentrations of CPD10 and CPD13 for 24 hrs. Cells were collected in ice-cold PBS and pellets were lysed in IP Lysis Buffer (25 mM Tris-HCl pH 7.4, 150 mM NaCl, 1 mM EDTA, 1% NP-40 and 5% glycerol and competing amount of protease inhibitor). Samples were lysed by sonication, BCA assay was performed and equal concentration of protein were added with TEAD4 antibody (3 ul). After overnight incubation in cold room, samples were added with anti-rabbit magnetic beads to trap the TEAD and binding complex for 2 hrs. Samples were washed 3 times and bound fraction were collected with the help of magnetic stand. Samples were added with 4×LDS, competing amount of DTT, and boiled for 3 minutes. Whole cell lysate (Input) and IP samples were resolved in 8% SDS-PAGE gel and immunoblotted with indicated antibodies.
(§4) Relative quantification of immunoblot signals were quantified with IMAGE J software. Actively growing cells were added with indicated concentrations of CPD10 and CPD13 and cells were collected after 24 hrs. RNA was extracted and cDNA was synthesized. Indicated primer pairs were used for RT-PCR. Relative gene expression was determined by using GAPDH amplification.

A549 cells = assay: Cell proliferation assay (Cell Titre Glow) in A549 cells with TEAD4 depletion; settings: TEAD4 depleted A549 cells, compared with NTsi treated cells
Description: as §1, §2

[4] = biological target: T2, TEAD4 binding to YAP and TAZ (Homo sapiens, UniProt Q15561); assay: GFP-TRAP assay to pull down TEAD4 binders in U20S cells expressing GFP fused TEAD4; settings: U20S cells expressing GFP fused TEAD4, 10 uM
T2 construct: expressed in transfected cells
Description: GFP-TRAP assay: To purify TEAD4 binders, GFP-Trap Magnetic Agarose (gtma-100) was used, and assay was performed strictly according to manufacturer's instructions. At the end of the assay, agarose beads were resuspended in 2×LDS lysis buffer, competing amount of DTT was added into it and samples were boiled for 3 minutes. Supernatants were collected and used for immunoblotting.
To determine whether CPD10 or 13 leads downregulation of TEAD4 binding to its transcriptional targets YAP and TAZ, U20S cells stably expressing GFP alone and GFP fused TEAD4 were either mock-treated or treated with indicated doses of CPD10. GFP-TRAP assay was performed to pull down TEAD4 binders, and immunoblotted. As one of the strong binders of the TEAD4, YAP/TAZ protein signal were detected in purified complex. […] The GFP blot indicating the GFP and GFP fused TEAD4 signal in whole cell lysates and purified protein samples (C).

[5] = system: TEADs transcriptional target genes; assay: RT PCR transcriptional profiling of TEADs target genes in A549 cells; settings: for NFKB1 relative expression (RT PCR) / c-MYC relative expression (RT PCR): low dose; for YAP/TAZ relative expression (RT PCR): low dose (2.5 μM of CPD10)
Description: Method: A549 cells (at 60% confluency) either mock treated or treated with indicated doses of CPD 10 and CPD13 for 24 hrs. Cells were washed with ice-cold 1×PBS. RNA extraction was performed with Quick-RNA™ miniprep kit (Zymo Research, Cat. No. R1055), strictly according to manufacturer's instructions. Nanodrop quantified 2 μg of RNA samples were used for cDNA synthesis with cDNA Reverse Transcription Kit (Thermo Cat. No. 4368814) strictly according to the manufacturer's instructions. In RT PCR experiment, comparative target gene expression was performed by SYBR™ Green (Thermo Cat. No. 4309155) Master mix. Relative target gene expressions were compared and plotted on Y-Axis.
Result: Relative expression of YAP and TAZ in response to low dose of CPD10 (A) and CPD13 (B) treatment in A549 cells. c-MYC was included as non-transcriptional target of the TEADs. NFKB1 was included as its expression is reciprocal to the YAP/TAZ. Downstream effectors of the TEADs targets (CYR61, AXL, CTGF and ANKRD1) were determined in responses to 2.5, 5 and 10 μM of CPD10 (C) and CPD13 (D).
CPD10 and CPD13 Downregulate the TEADs transcriptional target genes: To determine CPD10 and CPD13 induced relative expression of TEADs target genes, A549 cells were treated with indicated doses for 24 hrs. Transcriptional profiling was performed with respective primer pairs. […] Further we tested the expression of one of the strong non hippo transcription factor, the C-Myc. As expected, c-MYC expression was not affected in response to CPD10 treatment (A). […] C-Myc expression was not affected. […] An Increase of NFKB1 expression is consistent with significant downregulation of YAP expression in response to CPD13 treatment (B). To determine the state of TEADs transcriptional target genes at higher concentrations, A549 cells were treated with indicated doses of compounds and analyzed for the expression of CYR61, AXL, CTGF and ANKRD1.

[6] = system: TEAD transcriptional target genes; assay: RT-PCR profiling of YAP-TEAD transcriptional target genes in NCI-H226 cells; settings: 24 hrs
Description: as §4

[7] = system: hippo signaling target proteins (TEAD4, Pan-TEADs, YAP, TAZ); assay: Immunoblotting of hippo signaling target proteins in A549 whole cell lysates; settings: A549 cells, 24 hrs; for wild type p53 expression (immunoblot): same protein samples
Description: Method: A549 cells (at 60% confluency) either mock treated or treated with indicated doses of CPD10 and CPD13 for 24 hrs. Cells were washed with ice-cold 1×PBS and lysed in protein lysis buffer. Whole cell lysates were quantified by Pierce™ BCA Protein assay kit (Catalog number: 23225) and denatured in 4×LDS buffer (Thermo catalog number: NP0007) added with competing amount of DTT followed by boiling for 3 minutes. Samples were resolved in 8% of SDS-PAGE, transferred onto nitrocellulose membrane and immunoblotting was performed with indicated antibodies.
Result: To determine the CPD10 and CPD13 mediated expression of hippo signaling target proteins in A549 cells, whole cell lysates from mock treated and compounds treated cells were immunoblotted to determine the level of TEAD4, Pan-TEADs, YAP, TAZ proteins. […] Similar to CPD10, CPD13 downregulate YAP expression at 10 Um (B). To determine the level of other transcriptional targets, we tested the p53 protein in same sets of protein samples. […] GAPDH was used as loading control.

GFP-TEAD4 = biological target: T3, GFP-TEAD4 (Homo sapiens, UniProt Q15561); assay: TEAD4 localization imaging in U20S cells stably expressing GFP-TEAD4; settings: 10 μM, 18 hrs
T3 construct: expressed in transfected cells
Description: Methods: U20S cells stably expressing GFP-TEAD4 were seeded at 50,000 cell densities onto glass cover slips in six well plates. Next day, cells were either DMSO treated or treated with indicated compounds at 10 μM concentrations. After 18 hrs of treatment cells were washed and fixed in 4% formaldehyde for 20 minutes. Blocking was done in 3% BSA dissolved in PBST for 1 hour. Cell were incubated with indicated antibodies for overnight in a cold room. Next day, after washing 3× in PBST samples were incubated with respective secondary antibodies for 45 minutes at room temperature. After washing nuclear staining was done with DAPI for 10 minutes. Coverslips were added onto glass slides with the help of mounting medium. After drying, cells were imaged at 63× objective and processed with ZEN x64 blue software.
Result: In DMSO treated control samples we observed very nuclear localized TEAD4 (green) signal, strongly imposed to the DAPI signal. Nuclear and cytoplasmic YAP and TAZ was observed either in DMSO or in compound treated cells.

[8] = system: NCI-H226 mesothelioma cells; assay: Colony forming assay in NCI-H226 mesothelioma cells
Description: as §3
Colony forming assay was essentially performed as described in previous section.

[9] = system: CTGF and CYR61 transcripts; assay: RT-qPCR of Hippo-dependent gene transcripts in A549
Description: (§5) MGH-CP1 (positive control) and Cpd 13 were tested on MCF10 and A549.

[10] = system: CTGF and CYR61 transcripts; assay: RT-qPCR of Hippo-dependent gene transcripts in MCF10
Description: as §5

T3 sequence (Q15561 whole entry): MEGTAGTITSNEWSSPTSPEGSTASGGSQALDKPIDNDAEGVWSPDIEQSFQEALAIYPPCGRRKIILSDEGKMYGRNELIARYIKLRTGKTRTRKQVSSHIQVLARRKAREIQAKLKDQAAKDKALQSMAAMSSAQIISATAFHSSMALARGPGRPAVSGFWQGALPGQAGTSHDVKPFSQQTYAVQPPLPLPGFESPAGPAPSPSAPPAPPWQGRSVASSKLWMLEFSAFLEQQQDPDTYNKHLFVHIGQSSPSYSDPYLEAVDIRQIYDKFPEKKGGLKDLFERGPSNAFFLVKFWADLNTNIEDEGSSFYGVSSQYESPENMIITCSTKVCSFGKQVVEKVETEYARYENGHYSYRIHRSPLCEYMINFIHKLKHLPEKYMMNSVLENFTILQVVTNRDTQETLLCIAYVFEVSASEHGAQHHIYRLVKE
T1 sequence (Q15561 whole entry): as above
T2 sequence (Q15561 whole entry, the tested form may be a part): as the sequence (Q15561 whole entry) above

YAP-TEAD binding (TEAD4 IP, immunoblot) (YAP-TEAD binding)	cytoplasmic localization of the TEAD4 protein (GFP-TEAD4)	nuclear TEAD4 presence (GFP-TEAD4)	Compound	TEAD dependence of induced cell sensitivity (colony forming assay) [1]	TEAD4 dependence of cellular sensitivity (siRNA depletion, colony forming) (U20S cells [3])	AXL relative expression (RT PCR) ([5]; 24 hrs, 2.5, 5 and 10 μM)	CTGF relative expression (RT PCR) ([5]; 24 hrs, 2.5, 5 and 10 μM)	CYR61 relative expression (RT PCR) ([5]; 24 hrs, 2.5, 5 and 10 μM)	NFKB1 relative expression (RT PCR) ([5]; 24 hrs)	c-MYC relative expression (RT PCR) ([5]; 24 hrs)	YAP/TAZ relative expression (RT PCR) ([5]; 24 hrs)	TEAD transcriptional target genes expression (RT-PCR) [6]	wild type p53 expression (immunoblot) [7]	colony forming sensitivity [8]	also measured
			C=CS(=O)(=O)CCC(=O)Nc1cc(-c2ccccc2)cnc1C [CPD2]	not TEAD dependent											
disrupted to a great extent	induction of cytoplasmic localization	didn't diminish	C=CS(=O)(=O)CCC(=O)Nc1nn(-c2ccccc2)cc1C [CPD10]		TEAD4 dependent	suppressed at 2.5 μM and subsequently downregulated in a dose dependent manner	suppressed at 2.5 μM and subsequently downregulated in a dose dependent manner	suppressed at 2.5 μM and subsequently downregulated in a dose dependent manner	minor increase	not affected	downregulated	repression	didn't resulted in change	strongly sensitizes	cellular proliferation sensitivity (U20S cells [2]; U20S cells expressing GFP alone, low dose): didn't display sensitivity; cellular proliferation sensitivity (U20S cells [2]; U20S cells overexpressing GFP-TEAD4, below 5 uM): higher sensitivity; colony forming sensitivity (U20S cells [3]; U20S cells overexpressing GFP fused TEAD4, in comparison to GFP alone): very high sensitivity; colony forming sensitivity (U20S cells [3]; U20S cells treated with control siRNA, unlike TEAD4 depleted cells, 2.5 μM): very high sensitivity; cellular proliferation sensitivity (A549 cells): lower sensitivity; YAP/TAZ binding to TEAD4 (GFP-TRAP pull down, immunoblot) [4]: significantly reduced; ANKRD1 relative expression (RT PCR) ([5]; 24 hrs, 10 μM): significantly reduced; TAZ expression (immunoblot) ([7]; 10 Um): significantly reduced; TEAD4 and pan-TEAD expression (immunoblot) ([7]; highest concentration): reduced; YAP expression (immunoblot) ([7]; indicated doses): downregulated in a dose dependent manner
disrupted to a great extent	induction of cytoplasmic localization	didn't diminish	C=CS(=O)(=O)CCC(=O)Nc1nc(C2CCCCC2)c(C)s1 [CPD13]		TEAD4 dependent	further downregulated in a dose dependent manner	further downregulated in a dose dependent manner	further downregulated in a dose dependent manner	Increase	not affected	significant reduction	repression	didn't resulted in change	strongly sensitizes	CTGF and CYR61 transcripts (RT-qPCR) [9]: dose dependent decrease; colony forming sensitivity (U20S cells [3]; TEAD4 depleted cells, unlike control siRNA treated cells): less sensitive; CTGF and CYR61 transcripts (RT-qPCR) [10]: dose dependent decrease; ANKRD1 relative expression (RT PCR) ([5]; 24 hrs, 2.5, 5 and 10 μM): further downregulated in a dose dependent manner; YAP expression (immunoblot) ([7]; 10 Um): downregulate
			C=CS(=O)(=O)CCC(=O)Nc1cnn(-c2ccccc2)n1 [CPD38]	not TEAD dependent											
